According to US7683176B2, “Triazolyl pyridyl benzenesulfonamides” (ChemoCentryx, Inc., priority 2006, dated 2010):

Biological target: T1, CCR9 (Homo sapiens, UniProt P51686)
T1 construct: chemokine expressing cells (such as THP-1 cells for CCR2 assay or MOLT-4 cells for CCR9 assay); host or cells: MOLT-4
T1 sequence (P51686 1-369): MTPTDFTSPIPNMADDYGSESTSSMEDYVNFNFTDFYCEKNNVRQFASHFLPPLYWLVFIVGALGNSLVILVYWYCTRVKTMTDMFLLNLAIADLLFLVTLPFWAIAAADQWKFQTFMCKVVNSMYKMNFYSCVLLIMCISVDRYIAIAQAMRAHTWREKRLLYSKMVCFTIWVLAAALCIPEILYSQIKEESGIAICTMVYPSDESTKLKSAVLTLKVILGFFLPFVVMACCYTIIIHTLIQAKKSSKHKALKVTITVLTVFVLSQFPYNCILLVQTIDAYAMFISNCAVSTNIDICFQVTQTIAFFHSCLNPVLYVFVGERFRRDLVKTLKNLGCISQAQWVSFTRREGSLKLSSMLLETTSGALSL
Test: CCR9 activity in one of the chemotaxis, binding or calcium mobilization assays
Format: cell-based
Conditions: binding or calcium mobilization assays (MOLT-4 cells, TECK)
Procedure: THP-1 cells and MOLT-4 cells were obtained from the American Type Culture Collection (Manassas, Va.) and cultured in RPMI tissue culture medium supplemented with 10% fetal calf serum (FCS) in a humidified 5% CO2 incubator at 37° C. Recombinant human chemokine proteins MCP-1 and TECK were obtained from R&D Systems (Minneapolis, Minn.). ^125I-labeled MCP-1 protein was obtained from Amersham (Piscataway, N.J.). ChemoTX® chemotaxis microchambers were purchased from Neuro Probe (Gaithersburg, Md.). CyQUANT® cell proliferation kits were purchased from Molecular Probes (Eugene, Oreg.). Calcium indicator dye Fluo-4 AM was purchased from Molecular Devices (Mountain View, Calif.).
Conventional migration assay was used to determine the efficacy of potential receptor antagonists in blocking migration mediated through chemokines (such as CCR2 or CCR9). This assay was routinely performed using the ChemoTX® microchamber system with a 5-μm pore-sized polycarbonate membrane. To begin such an assay, chemokine expressing cells (such as THP-1 cells for CCR2 assay or MOLT-4 cells for CCR9 assay) were harvested by centrifugation of cell suspension at 1000 RPM on a GS-6R Beckman centrifuge. The cell pellet was resuspended in chemotaxis buffer (HBSS with 0.1% BSA) at 10×10^6 cells/mL for CCR2 assay (5×10^6 cells/mL for CCR9 assay). Test compounds at desired concentrations were prepared from 10 mM stock solutions by serial dilutions in chemotaxis buffer. An equal volume of cells and compounds were mixed and incubated at room temperature for 15 minutes. Afterwards, 20 μL of the mixture was transferred onto the porous membrane of a migration microchamber, with 29 μL of chemokine ligand (0.1 nM chemokine MCP-1 protein for CCR2 assay or […] chemokine TECK protein for CCR9 assay) placed at the lower chamber. Following an incubation at 37° C. (90-minute for CCR2; 150-minute for CCR9), during which cells migrated […] the chemokine gradient, the assay was terminated by removing the cell drops from atop the filter. To quantify cells migrated across the membrane, 5 μL of 7× CyQUANT® solution was added to each well in the lower chamber, and the fluorescence signal measured on a Spectrafluor Plus fluorescence plate reader (TECAN, Durham, N.C.). The degree of inhibition was determined by comparing migration signals between compound-treated and untreated cells. IC50 calculation was further performed by non-linear squares regression analysis using Graphpad Prism (Graphpad Software, San Diego, Calif.).
Calcium flux assay measures an increase in intracellular calcium following ligand-induced receptor activation. In the screen of chemokine antagonists, it was used as a secondary assay carried out on a FLIPR® machine (Molecular Devices, Mountain View, Calif.). To begin an assay, chemokine expressing cells (such as THP-1 cells for CCR2 assay or MOLT-4 cells for CCR9 assay) were harvested by centrifugation of cell suspension, and resuspended to 1.5×10^6 cells/mL in HBSS (with 1% fetal calf serum). Cells were then labeled with a calcium indicator dye Fluo-4 AM for 45 minutes at 37° C. with gentle shaking. Following incubation, cells were pelletted, washed once with HBSS and resuspended in the same buffer at a density of 1.6×10^6 cells/mL. One hundred microliters of labeled cells were mixed with 10 μL of test compound at the appropriate concentrations on an assay plate. Chemokine protein (MCP-1 at a final concentration of 0.1 nM for CCR2 assay or TECK at a final concentration of 25 nM for CCR9 assay) to activate the receptor. The degree of inhibition was determined by comparing calcium signals between compound-treated and untreated cells. IC50 calculations were further performed by non-linear squares regression analysis using Graphpad Prism (Graphpad Software, San Diego, Calif.).

Row | IC50 [nM] | SMILES
1 | < 1000 | CC(C)(C)c1ccc(S(=O)(=O)Nc2cc(Cl)cnc2-c2nncn2-c2ccccc2)cc1
2 | < 1000 | Cn1cnnc1-c1ncc(Cl)cc1NS(=O)(=O)c1ccc(C(C)(C)C)cc1
3 | < 1000 | CC(C)c1nnc(-c2ncc(Cl)cc2NS(=O)(=O)c2ccc(C(C)(C)C)cc2)n1C
4 | < 1000 | CCn1c(COC)nnc1-c1ncc(Cl)cc1NS(=O)(=O)c1ccc(C(C)(C)C)cc1
5 | < 1000 | CNC(=O)c1nnc(-c2ncc(Cl)cc2NS(=O)(=O)c2ccc(C(C)(C)C)cc2)n1C(C)C
6 | < 1000 | Cc1nnc(-c2ncc(Cl)cc2NS(=O)(=O)c2ccc(C(C)(C)C)cc2)n1C
7 | < 1000 | Cn1c(-c2cccnc2)nnc1-c1ncc(Cl)cc1NS(=O)(=O)c1ccc(C(C)(C)C)cc1
8 | < 1000 | Cn1c(-c2ccno2)nnc1-c1ncc(Cl)cc1NS(=O)(=O)c1ccc(C(C)(C)C)cc1
9 | < 1000 | Cc1cnc(-c2nncn2C2CCN(C(=O)OC(C)(C)C)C2)c(NS(=O)(=O)c2ccc(C(C)(C)C)cc2)c1 (centres unmarked)
10 | < 1000 | COCc1nnc(-c2ncc(Cl)cc2NS(=O)(=O)c2ccc(C(C)(C)C)cc2)n1C
11 | < 1000 | CC(C)(C)c1ccc(S(=O)(=O)Nc2cc(Cl)cnc2-c2nncn2[C@H]2CCNC2)cc1
12 | < 1000 | Cc1nnc(-c2ncc(Cl)cc2NS(=O)(=O)c2ccc(C(C)(C)C)cc2)n1C1CC1
13 | < 1000 | Cn1c(-c2ncc(Cl)cc2NS(=O)(=O)c2ccc(C(C)(C)C)cc2)nnc1C1CCNCC1
14 | < 1000 | CC(C)(C)c1ccc(S(=O)(=O)Nc2cc(Cl)cnc2-c2nnc3n2CCOC3)cc1
15 | < 1000 | COCc1nnc(-c2ncc(Cl)cc2NS(=O)(=O)c2ccc(C(C)(C)C)cc2)n1C1CCOCC1
16 | < 1000 | Cn1c(-c2ncc(Cl)cc2NS(=O)(=O)c2ccc(C(C)(C)C)cc2)nnc1C1CCCN1 (centres unmarked)
17 | < 1000 | CCOC(=O)c1nnc(-c2ncc(Cl)cc2NS(=O)(=O)c2ccc(C(C)(C)C)cc2)n1C(C)C

The remaining lines, values behind:

Row | SMILES | IC50 [nM]
18 | Cc1nnc(-c2ncc(Cl)cc2NS(=O)(=O)c2ccc(C(C)(C)C)cc2)n1C(C)C | < 1000
19 | CC(C)n1cnnc1-c1ncc(Cl)cc1NS(=O)(=O)c1ccc(C(C)(C)C)cc1 | < 1000
20 | CC(C)n1c(-c2ncc(Cl)cc2NS(=O)(=O)c2ccc(C(C)(C)C)cc2)nnc1C(C)(C)O | < 1000
21 | Cn1c(-c2ccncc2)nnc1-c1ncc(Cl)cc1NS(=O)(=O)c1ccc(C(C)(C)C)cc1 | < 1000
22 | CC(C)(C)c1ccc(S(=O)(=O)Nc2cc(Cl)cnc2-c2nncn2-c2ccccc2F)cc1 | < 1000
23 | CCn1cnnc1-c1ncc(Cl)cc1NS(=O)(=O)c1ccc(C(C)(C)C)cc1 | < 1000
24 | CC(C)(C)c1ccc(S(=O)(=O)Nc2cc(Cl)cnc2-c2nncn2[C@H]2CCCNC2)cc1 | < 1000
25 | CCn1c(C)nnc1-c1ncc(Cl)cc1NS(=O)(=O)c1ccc(C(C)(C)C)cc1 | < 1000
26 | CC(C)n1c(C(=O)N(C)C)nnc1-c1ncc(Cl)cc1NS(=O)(=O)c1ccc(C(C)(C)C)cc1 | < 1000
27 | COCc1nnc(-c2ncc(Cl)cc2NS(=O)(=O)c2ccc(C(C)(C)C)cc2)n1C(C)C | < 1000
28 | Cc1cnc(-c2nncn2C2CCNC2)c(NS(=O)(=O)c2ccc(C(C)(C)C)cc2)c1 (centres unmarked) | < 1000
29 | CC(C)(C)c1ccc(S(=O)(=O)Nc2cc(Cl)cnc2-c2nnc3n2CCNC3)cc1 | < 1000
30 | Cc1cnc(-c2nncn2C2CCN(C)C2)c(NS(=O)(=O)c2ccc(C(C)(C)C)cc2)c1 (centres unmarked) | < 1000
31 | CC(C)n1c(N)nnc1-c1ncc(Cl)cc1NS(=O)(=O)c1ccc(C(C)(C)C)cc1 | < 1000
32 | CC(=O)Nc1nnc(-c2ncc(Cl)cc2NS(=O)(=O)c2ccc(C(C)(C)C)cc2)n1C(C)C | < 1000
